According to patent US20260191858A1, “COMBINATION THERAPIES” (Kallyope, Inc., priority 2022, published 2026):

Molecular target: T1, human GPR119 (hGPR119) (Homo sapiens, UniProt Q8TDV5)
T1 construct: expressed in transfected cells; host or cells: CHO-K1
T1 sequence (Q8TDV5 1-335): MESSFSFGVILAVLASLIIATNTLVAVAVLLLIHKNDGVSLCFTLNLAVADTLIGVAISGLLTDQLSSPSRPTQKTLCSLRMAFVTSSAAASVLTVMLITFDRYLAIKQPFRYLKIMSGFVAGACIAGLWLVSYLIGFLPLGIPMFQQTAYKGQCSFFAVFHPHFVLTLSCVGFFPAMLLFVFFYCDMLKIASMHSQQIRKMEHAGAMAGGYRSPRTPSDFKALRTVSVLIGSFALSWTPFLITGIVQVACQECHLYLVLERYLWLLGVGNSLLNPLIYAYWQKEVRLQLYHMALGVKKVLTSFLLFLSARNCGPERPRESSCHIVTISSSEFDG
Assay: cAMP accumulation assay in CHO-K1 cells stably expressing hGPR119
Format: cell-based
Details: cAMP HTRF, 60 minutes
Procedure, shortened: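 Assay-ready frozen CHO-K1 cells stably expressing hGPR119, ~10,000 cells/well, were exposed to compounds for 60 min at 37 °C in stimulation buffer with Tween 80. cAMP was measured by HTRF (665/620 nm ratio) and normalized to Max/Min controls as % activity. EC50 and Max activity came from a 4-parameter fit.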

EC50 [µM]	Structure (SMILES)
≤ 0.1	CCc1cnc(N2CCC(CCCOc3ccc(CC(=O)N4CC(CNCC(O)(CO)CO)C4)c(F)c3)CC2)nc1 [Compound A33, 1-(3-(((2,3-dihydroxy-2-(hydroxymethyl)propyl)amino)methyl)azetidin-1-yl)-2-(4-(3-(1-(5-ethylpyrimidin-2-yl)piperidin-4-yl)propoxy)-2-fluorophenyl)ethan-1-one]
0.1 to 1	O=C(NCCO[C@H]1O[C@H](CO)[C@@H](O)[C@H](O)[C@@H]1O)C1CN(C(=O)Cc2ccc(OCCCC3CCN(c4ncc(Cl)cn4)CC3)cc2F)C1 (racemic) [Compound A6, 1-[2-[4-[3-[1-(5-chloropyrimidin-2-yl)-4-piperidyl]propoxy]-2-fluoro-phenyl]acetyl]-N-[2-[rac-(2S,3S,4S,5S,6R)-3,4,5-trihydroxy-6-(hydroxymethyl)tetrahydropyran-2-yl]oxyethyl]azetidine-3-carboxamide]
≤ 0.1	O=C(Cc1ccc(OCCCC2CCN(c3ncc(Cl)cn3)CC2)cc1F)N1CC(O)(CNC[C@H](O)[C@H](O)[C@H](O)CO)C1 [Compound A72, 2-[4-[3-[1-(5-chloropyrimidin-2-yl)-4-piperidyl]propoxy]-2-fluoro-phenyl]-1-[3-hydroxy-3-[[[(2S,3S,4R)-2,3,4,5-tetrahydroxypentyl]amino]methyl]azetidin-1-yl]ethanone]
≤ 0.1	O=C(Cc1ccc(OCCCC2CCN(c3ncc(Cl)cn3)CC2)cc1F)N1CC(CNCC(O)(CO)CO)C1 [Compound A15, 2-[4-[3-[1-(5-chloropyrimidin-2-yl)-4-piperidyl]propoxy]-2-fluoro-phenyl]-1-[3-[[[2,3-dihydroxy-2-(hydroxymethyl)propyl]amino]methyl]azetidin-1-yl]ethanone]
≤ 0.1	CCCc1cnc(N2CCC(CCCOc3cc(F)c(CC(=O)N4CC(CNC(CO)(CO)CO)C4)c(F)c3)CC2)nc1 [Compound A46, 2-(2,6-difluoro-4-(3-(1-(5-propylpyrimidin-2-yl)piperidin-4-yl)propoxy)phenyl)-1-(3-(((1,3-dihydroxy-2-(hydroxymethyl)propan-2-yl)amino)methyl)azetidin-1-yl)ethan-1-one]
0.1 to 1	O=C(CC1CN(C(=O)Cc2ccc(OCCCC3CCN(c4ncc(Cl)cn4)CC3)cc2F)C1)NCC(O)(CO)CO [Compound A8, 2-[1-[2-[4-[3-[1-(5-chloropyrimidin-2-yl)-4-piperidyl]propoxy]-2-fluoro-phenyl]acetyl]azetidin-3-yl]-N-[2,3-dihydroxy-2-(hydroxymethyl)propyl]acetamide]
≤ 0.1	O=C(Cc1ccc(OCCCC2CCN(c3ncc(Cl)cn3)CC2)cc1F)N1CC(CCNC[C@H](O)[C@H](O)[C@H](O)CO)C1 [Compound A59, 2-[4-[3-[1-(5-chloropyrimidin-2-yl)-4-piperidyl]propoxy]-2-fluoro-phenyl]-1-[3-[2-[[(2S,3S,4R)-2,3,4,5-tetrahydroxypentyl]amino]ethyl]azetidin-1-yl]ethanone]
≤ 0.1	CCCc1cnc(N2CCC(CCCOc3ccc(CC(=O)N4CC(CNCC(O)(CO)CO)C4)c(F)c3)CC2)nc1 [Compound A41, 1-(3-(((2,3-dihydroxy-2-(hydroxymethyl)propyl)amino)methyl)azetidin-1-yl)-2-(2-fluoro-4-(3-(1-(5-propylpyrimidin-2-yl)piperidin-4-yl)propoxy)phenyl)ethan-1-one]
≤ 0.1	O=C(Cc1ccc(OCCCC2CCN(c3ncc(Cl)cn3)CC2)cc1F)N1CC(CNC[C@H](O)[C@@H](O)[C@H](O)CO)C1 [Compound A61, 2-[4-[3-[1-(5-chloropyrimidin-2-yl)-4-piperidyl]propoxy]-2-fluoro-phenyl]-1-[3-[[[(2S,3R,4R)-2,3,4,5-tetrahydroxypentyl]amino]methyl]azetidin-1-yl]ethanone]
0.1 to 1	O=C(NCCCCCS(=O)(=O)O)C1CN(C(=O)Cc2ccc(OCCCC3CCN(c4ncc(Cl)cn4)CC3)cc2F)C1 [Compound A66, 5-[[1-[2-[4-[3-[1-(5-chloropyrimidin-2-yl)-4-piperidyl]propoxy]-2-fluoro-phenyl]acetyl]azetidine-3-carbonyl]amino]pentane-1-sulfonic acid]
0.1 to 1	O=C(CC1CN(C(=O)Cc2ccc(OCCCC3CCN(c4ncc(Cl)cn4)CC3)cc2F)C1)NCCCS(=O)(=O)O [Compound A69, 3-[[2-[1-[2-[4-[3-[1-(5-chloropyrimidin-2-yl)-4-piperidyl]propoxy]-2-fluoro-phenyl]acetyl]azetidin-3-yl]acetyl]amino]propane-1-sulfonic acid]
0.1 to 1	O=C(NC(CO)CO)C1CN(C(=O)Cc2ccc(OCCCC3CCN(c4ncc(Cl)cn4)CC3)cc2F)C1 [Compound A3, 1-[2-[4-[3-[1-(5-chloropyrimidin-2-yl)-4-piperidyl]propoxy]-2-fluoro-phenyl]acetyl]-N-[2-hydroxy-1-(hydroxymethyl)ethyl]azetidine-3-carboxamide]
≤ 0.1	O=C(Cc1c(F)cc(OCCCC2CCN(c3ncc(Cl)cn3)CC2)cc1F)N1CC(CNC[C@H](O)[C@@H](O)[C@H](O)[C@H](O)CO)C1 [Compound A25, 2-[4-[3-[1-(5-chloropyrimidin-2-yl)-4-piperidyl]propoxy]-2,6-difluoro-phenyl]-1-[3-[[[(2S,3R,4R,5R)-2,3,4,5,6-pentahydroxyhexyl]amino]methyl]azetidin-1-yl]ethanone]
0.1 to 1	O=C(NC[C@H](O)[C@@H](O)[C@H](O)[C@H](O)CO)C1CN(C(=O)Cc2ccc(OCCCC3CCN(c4ncc(Cl)cn4)CC3)cc2F)C1 (racemic) [Compound A10, 1-[2-[4-[3-[1-(5-chloropyrimidin-2-yl)-4-piperidyl]propoxy]-2-fluoro-phenyl]acetyl]-N-[rac-(2S,3R,4R,5R)-2,3,4,5,6-pentahydroxyhexyl]azetidine-3-carboxamide]
0.1 to 1	CCCc1cnc(N2CCC(CCCOc3ccc(CC(=O)N4CC(CNCCNC(=O)NC(CO)(CO)CO)C4)c(F)c3)CC2)nc1 [Compound A43, 1-(1,3-dihydroxy-2-(hydroxymethyl)propan-2-yl)-3-(2-(((1-(2-(2-fluoro-4-(3-(1-(5-propylpyrimidin-2-yl)piperidin-4-yl)propoxy)phenyl)acetyl)azetidin-3-yl)methyl)amino)ethyl)urea]
≤ 0.1	CCc1cnc(N2CCC(CCCOc3ccc(CC(=O)N4CC(CNCCNC(=O)NC(CO)(CO)CO)C4)c(F)c3)CC2)nc1 [Compound A35, 1-(1,3-dihydroxy-2-(hydroxymethyl)propan-2-yl)-3-(2-(((1-(2-(4-(3-(1-(5-ethylpyrimidin-2-yl)piperidin-4-yl)propoxy)-2-fluorophenyl)acetyl)azetidin-3-yl)methyl)amino)ethyl)urea]
≤ 0.1	O=C(Cc1ccc(OCCCC2CCN(c3ncc(Cl)cn3)CC2)cc1F)N1CC(CNCC(CO)CO)C1 [Compound A17]
0.1 to 1	CCCc1cnc(N2CCC(CCCOc3cc(F)c(CC(=O)N4CC(CNCCNC(=O)NC(CO)(CO)CO)C4)c(F)c3)CC2)nc1 [Compound A47, 1-(2-(((1-(2-(2,6-difluoro-4-(3-(1-(5-propylpyrimidin-2-yl)piperidin-4-yl)propoxy)phenyl)acetyl)azetidin-3-yl)methyl)amino)ethyl)-3-(1,3-dihydroxy-2-(hydroxymethyl)propan-2-yl)urea]
